{"source": "patent US10231980B2", "about": "“Cortexolone 17alpha-benzoate for use in the treatment of tumours” (COSMO TECHNOLOGIES LTD., priority 2014, dated 2019)", "key": {"[1]": {"test": "In vitro metabolism in plasma", "assay_type": "in vitro ADME", "details": "human plasma, 37 C, through 8 hours", "description": "To obtain some insight on the metabolism of CB-03-06 in human and rat plasma, a specific assay was designed. Briefly, the compound was incubated at different time points in human and rat plasma at 37 C. After incubation, the samples were tested for presence of the intact compound by liquid chromatography."}, "[2]": {"test": "In vivo pharmacokinetics in plasma", "details": "mice; for AUC: mouse, plasma", "description": "The pharmacokinetic of CB-03-06 was evaluated in plasma of mice after intravenous (iv), subcutaneous (SC) and oral administration (PO).\nMice (3 per group) were administered with the following doses and blood was collected at the indicated times. Plasma samples were analyzed by HPLC-MS/MS."}, "wild type AR (AR-LBD)": {"target": "T1, wild type AR (AR-LBD) (Rattus norvegicus, UniProt P15207)", "T1 construct": "purchased Life Technologies", "T1 sequence (P15207 651-882 limits assumed)": "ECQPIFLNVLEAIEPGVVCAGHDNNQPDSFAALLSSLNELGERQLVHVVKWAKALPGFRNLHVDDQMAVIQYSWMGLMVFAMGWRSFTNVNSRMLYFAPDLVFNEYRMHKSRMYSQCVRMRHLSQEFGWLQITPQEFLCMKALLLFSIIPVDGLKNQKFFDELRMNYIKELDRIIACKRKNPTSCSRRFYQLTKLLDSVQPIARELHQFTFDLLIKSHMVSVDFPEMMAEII", "test": "Polar Screen fluorescence polarization competition assay", "assay_type": "binding", "experimental": "Briefly, the AR is added to a fluorescent androgen ligand (Fluormone™ AL Green) to form an AR-LBD complex. Competitors displace the fluorescent Fluormone™ AL Green ligand from the AR-LBD causing the fluorescent ligand to tumble rapidly during its fluorescence lifetime, resulting in a low polarization value. Non competitors will not displace the fluorescent ligand from the complex, so the polarization value remains high. The shift in polarization value in the presence of test compounds is used to determine relative affinity of test compounds for AR-LBD."}, "[3]": {"system": "LNCaP prostate cancer xenograft", "test": "Human prostate cancer xenograft in nude mice, oral dosing", "assay_type": "in vivo", "details": "oral 100 mg/Kg daily 28 days", "description": "3×10^6 LNCaP cells suspended in matrigel were subcutaneously injected (on the right flank) into 6 week old male athymic nude mice. Tumors were measured as described above. Treatment with CB-03-06 and controls compounds was initiated after the tumor had reached 50 mm^3. […] Oral dosing was daily (100 mg/Kg in 200 microL/mouse) for 28 consecutive days. Results were plotted as average change in tumor volume relative to the start of treatment."}, "[4]": {"target": "T2, glucocorticoid receptor (GR) (Homo sapiens, UniProt P04150)", "T2 construct": "endogenous in cells; host or cells: human kidney epithelial cells", "T2 sequence (P04150 1-777)": "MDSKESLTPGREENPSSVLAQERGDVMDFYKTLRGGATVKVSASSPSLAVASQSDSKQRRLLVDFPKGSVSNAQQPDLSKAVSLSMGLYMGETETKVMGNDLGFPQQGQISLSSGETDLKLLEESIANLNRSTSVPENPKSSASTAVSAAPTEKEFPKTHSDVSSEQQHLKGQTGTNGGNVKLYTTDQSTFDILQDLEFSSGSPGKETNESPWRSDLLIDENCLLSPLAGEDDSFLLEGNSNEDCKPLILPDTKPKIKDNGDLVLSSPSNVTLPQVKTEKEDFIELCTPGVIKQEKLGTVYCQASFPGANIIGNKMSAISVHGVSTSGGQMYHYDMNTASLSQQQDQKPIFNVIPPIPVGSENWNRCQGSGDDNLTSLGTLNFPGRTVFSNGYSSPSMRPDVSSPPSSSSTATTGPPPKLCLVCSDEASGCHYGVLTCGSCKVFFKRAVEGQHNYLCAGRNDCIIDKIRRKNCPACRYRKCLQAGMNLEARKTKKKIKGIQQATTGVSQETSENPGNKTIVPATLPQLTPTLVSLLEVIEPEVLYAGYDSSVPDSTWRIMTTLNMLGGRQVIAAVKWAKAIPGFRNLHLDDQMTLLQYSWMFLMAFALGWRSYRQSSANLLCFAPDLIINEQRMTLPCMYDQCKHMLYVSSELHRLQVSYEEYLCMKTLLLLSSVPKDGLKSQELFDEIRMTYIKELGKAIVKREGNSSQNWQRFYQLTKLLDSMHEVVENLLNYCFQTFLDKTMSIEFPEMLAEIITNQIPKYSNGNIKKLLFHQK", "test": "GR reporter agonist assay (induction of luminescence)", "assay_type": "cell-based", "details": "agonist mode", "description": "(§1) The androgen and glucocorticoid hormones elicit divergent and often opposing effects in cells, tissues, and animals. […] CB-03-06 GR antagonist and agonist activities were tested on an in vitro assay. Briefly, human kidney epithelial cells were transfected with DNA construct containing GR binding sites linked to luminescent based reporter molecule. After 24 hours, cells were treated under antagonist or agonist modes. After an additional 24 hours, luminescence which is proportional to GR agonist transcriptional activity was quantitated.\nAgonist Assay—was based on induction of luminescence by CB-03-06\nThe agonist activity of CB-03-06 was compared to a RU486 which is known to not have agonist activity."}, "[5]": {"target": "T2, glucocorticoid receptor (GR)", "test": "GR reporter antagonist assay (inhibition of Dexamethasone-induced luminescence)", "assay_type": "cell-based", "details": "inhibition of Dex-induced luminescence", "description": "as §1\nAntagonist Assay was based on inhibition of luminescence induced by Dexamethasone (Dex).\nThe antagonist activity of CB-03-06 was compared to a known GR antagonist, Mifepristone (also called RU486) as shown in FIG. 7."}, "22Rv1": {"system": "22Rv1", "test": "In vitro proliferation, larger panel (Example 14)", "assay_type": "cell-based", "details": "Homo sapiens, Table III", "excerpt": "Results are depicted in Table III."}, "MiaPaca2": {"system": "MiaPaca2", "test": "Annexin V / propidium iodide apoptosis flow cytometry", "assay_type": "cell-based", "details": "24 hours, control 12%", "description": "CB-03-06 was evaluated to determine if the mechanism of cytotoxicity on cancer cell lines was mediated by apoptosis and cell cycle arrest. Cancer cell lines were seeded in 6-well flat bottom plates. After 24 hours, test compounds or DMSO vehicle (negative control) were added. After an additional 24 hours, cells were scraped and stained with fluorescein conjugated Annexin V and propidium iodide, and analyzed by flow cytometry."}}, "data": [{"molecule": "C[C@]12CCC(=O)C=C1CC[C@@H]1[C@@H]2CC[C@@]2(C)[C@H]1CC[C@]2(OC(=O)c1ccccc1)C(=O)CO", "note": "[CB-03-06, cortexolone 17α-benzoate]", "values": [{"measurement": "intact compound, % of initial concentration", "setting": "[1]", "value": "over 90%"}, {"measurement": "body exposure relative to subcutaneous administration", "setting": "[2]; intravenously", "value": 50, "unit": "%"}, {"measurement": "body exposure relative to subcutaneous administration", "setting": "[2]; orally", "value": 17, "unit": "%"}, {"measurement": "AUC", "setting": "[2]; PO 40 mg/kg", "value": 276, "unit": "ng·h/mL"}, {"measurement": "AUC", "setting": "[2]; SC 40 mg/kg", "value": 1620, "unit": "ng·h/mL"}, {"measurement": "AUC", "setting": "[2]; iv 20 mg/kg", "value": 896, "unit": "ng·h/mL"}, {"measurement": "IC50", "setting": "wild type AR (AR-LBD)", "value": 2.6, "unit": "µM"}, {"measurement": "anti-tumor activity, change in tumor volume", "setting": "[3]", "value": "strong anti-tumor activity against prostate cancer"}, {"measurement": "GR agonist activity plateau", "setting": "[4]", "value": "45 % of Dex maximum"}, {"measurement": "concentration activating the GR to the same extent", "setting": "[4]; CB-03-06 compared with Dex", "value": 14, "unit": "nM"}, {"measurement": "GR antagonist potency, times less than RU486", "setting": "[5]", "value": 100, "unit": "times"}, {"measurement": "IC50", "setting": "22Rv1", "value": 25, "unit": "µM"}, {"measurement": "cells in apoptosis (early and late)", "setting": "MiaPaca2", "value": 56, "unit": "% cells"}]}]}
